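Dose response: 5 concentrations. Exposure: 48 h. Format: 96-well plates. Endpoint: linear interpolation; highest concentration if not reached. At the GI50, growth is halved.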 The source made the active and inactive calls. No stated cut-off is given here; in the data, active = GI50 up to about 1.1 µM and inactive = higher.
What was measured:
Assay in all cases: NCI anticancer screen, dose series, 48 h
[1] = tested on: A549
[2] = tested on: SF-539
[3] = tested on: IGROV-1
[4] = tested on: LXFL 529
[5] = tested on: DLD-1
[6] = tested on: SNB-78
[7] = tested on: SK-OV-3
[8] = tested on: K562
[9] = tested on: NCI-H226
[10] = tested on: HCT-15
[11] = tested on: SF-268
[12] = tested on: ACHN
[13] = tested on: COLO 205
[14] = tested on: UACC-257
[15] = tested on: RXF 393
[16] = tested on: U-251
[17] = tested on: OVCAR-5
[18] = tested on: HCC 2998
[19] = tested on: HL-60
[20] = tested on: OVCAR-3
[21] = tested on: XF498
[22] = tested on: RPMI-8226
[23] = tested on: OVCAR-8
[24] = tested on: CAKI-1
[25] = tested on: 786-0
[26] = tested on: MOLT-4
[27] = tested on: M19-MEL
[28] = tested on: SK-MEL-2
[29] = tested on: EKVX
[30] = tested on: HOP-18
[31] = tested on: SK-MEL-5
[32] = tested on: TK-10
[33] = tested on: NCI-H460
[34] = tested on: SF-295
[35] = tested on: NCI-H522
[36] = tested on: Malme-3M
[37] = tested on: UO-31
[38] = tested on: OVCAR-4
[39] = tested on: HOP-62
[40] = tested on: M14
[41] = tested on: LOX IMVI
[42] = tested on: A498
[43] = tested on: HT-29
[44] = tested on: SR
[45] = tested on: SN12C
[46] = tested on: DMS-114
[47] = tested on: SW-620
[48] = tested on: CCRF-CEM
[49] = tested on: NCI-H23
[50] = tested on: HCT-116
[51] = tested on: RXF 631
[52] = tested on: KM12
[53] = tested on: SNB-19
[54] = tested on: KM-20L2
[55] = tested on: UACC-62
[56] = tested on: SNB-75
[57] = tested on: SK-MEL-28
[58] = tested on: DMS-273
[59] = tested on: HOP-92

`CC1(C)CC(=O)C(C(=O)C(=O)NC2=C(Cl)C(=O)c3ccccc3C2=O)C(=O)C1` was tested, and the GI50 [1] was > 100 µM (inactive), the GI50 [2] was > 100 µM (inactive) and the GI50 [3] was > 100 µM (inactive). The GI50 [4] was 49.1 µM (inactive), the GI50 [5] was > 100 µM (inactive) and the GI50 [6] was > 100 µM (inactive). The GI50 [7] was > 100 µM (inactive), the GI50 [8] was 32 µM (inactive) and the GI50 [9] was 39.4 µM (inactive). The GI50 [10] was 46.5 µM, the GI50 [11] was > 100 µM (inactive) and the GI50 [12] was 91.4 µM (inactive). The GI50 [13] was 38.7 µM (inactive), the GI50 [14] was > 100 µM (inactive) and the GI50 [15] was 70.8 µM (inactive). The GI50 [16] was 82.2 µM (inactive), the GI50 [17] was > 100 µM (inactive) and the GI50 [18] was 45.4 µM (inactive). For the same molecule, the GI50 [19] was 20.1 µM (inactive), the GI50 [20] was 58.6 µM (inactive) and the GI50 [21] was > 100 µM (inactive). For the same molecule, the GI50 [22] was 34.8 µM (inactive), the GI50 [23] was > 100 µM (inactive) and the GI50 [24] was 71.8 µM (inactive). For the same molecule, the GI50 [25] was > 100 µM (inactive), the GI50 [26] was 20.1 µM (inactive) and the GI50 [27] was 61.5 µM (inactive). The GI50 [28] was > 100 µM (inactive), the GI50 [29] was > 100 µM (inactive) and the GI50 [30] was > 100 µM (inactive). For the same molecule, the GI50 [31] was 73.8 µM (inactive), the GI50 [32] was > 100 µM (inactive) and the GI50 [33] was 51.2 µM (inactive). The GI50 [34] was > 100 µM (inactive), the GI50 [35] was 24 µM (inactive) and the GI50 [36] was > 100 µM (inactive). The GI50 [37] was 57.4 µM (inactive), the GI50 [38] was 63.5 µM (inactive) and the GI50 [39] was > 100 µM (inactive). The GI50 [40] was > 100 µM (inactive), the GI50 [41] was 80.9 µM (inactive) and the GI50 [42] was > 100 µM (inactive). The GI50 [43] was 80.7 µM (inactive), the GI50 [44] was 30.8 µM (inactive) and the GI50 [45] was 73.6 µM (inactive). For the same molecule, the GI50 [46] was 67.9 µM (inactive), the GI50 [47] was > 100 µM (inactive) and the GI50 [48] was 36 µM (inactive). For the same molecule, the GI50 [49] was > 100 µM (inactive), the GI50 [50] was > 100 µM (inactive) and the GI50 [51] was 82.4 µM (inactive). The GI50 [52] was 42.3 µM (inactive), the GI50 [53] was > 100 µM (inactive) and the GI50 [54] was > 100 µM (inactive). For the same molecule, the GI50 [55] was 45.5 µM (inactive), the GI50 [56] was 71.1 µM (inactive) and the GI50 [57] was > 100 µM (inactive).
In the case of `CC(C)C1COC(c2cccc(C3=N[C@@H](C(C)C)CO3)n2)=N1` (some centres not stated), the GI50 [58] is reported as > 100 µM (inactive), the GI50 [1] is reported as > 100 µM (inactive) and the GI50 [2] is reported as > 100 µM (inactive). The GI50 [3] was > 100 µM (inactive), the GI50 [4] was > 100 µM (inactive) and the GI50 [5] was > 100 µM (inactive). For the same molecule, the GI50 [6] was > 100 µM (inactive), the GI50 [7] was > 100 µM (inactive) and the GI50 [8] was > 100 µM (inactive). The GI50 [9] was > 100 µM (inactive), the GI50 [10] was > 100 µM and the GI50 [11] was > 100 µM (inactive). For the same molecule, the GI50 [12] was > 100 µM (inactive), the GI50 [13] was > 100 µM (inactive) and the GI50 [15] was > 100 µM (inactive). For the same molecule, the GI50 [16] was 59.3 µM (inactive), the GI50 [17] was > 100 µM (inactive) and the GI50 [18] was > 100 µM (inactive). The GI50 [19] was > 100 µM (inactive), the GI50 [20] was > 100 µM (inactive) and the GI50 [59] was > 100 µM (inactive). For the same molecule, the GI50 [21] was > 100 µM (inactive), the GI50 [22] was > 100 µM (inactive) and the GI50 [24] was > 100 µM (inactive). For the same molecule, the GI50 [25] was > 100 µM (inactive), the GI50 [26] was > 100 µM (inactive) and the GI50 [27] was > 100 µM (inactive). For the same molecule, the GI50 [28] was > 100 µM (inactive), the GI50 [29] was > 100 µM (inactive) and the GI50 [31] was > 100 µM (inactive). For the same molecule, the GI50 [32] was > 100 µM (inactive), the GI50 [33] was > 100 µM (inactive) and the GI50 [34] was > 100 µM (inactive). The GI50 [35] was > 100 µM (inactive), the GI50 [36] was > 100 µM (inactive) and the GI50 [37] was 98.6 µM (inactive). The GI50 [38] was > 100 µM (inactive), the GI50 [39] was > 100 µM (inactive) and the GI50 [40] was > 100 µM (inactive). The GI50 [41] was > 100 µM (inactive), the GI50 [42] was > 100 µM (inactive) and the GI50 [43] was > 100 µM (inactive). The GI50 [44] was > 100 µM (inactive), the GI50 [45] was > 100 µM (inactive) and the GI50 [46] was > 100 µM (inactive). The GI50 [47] was > 100 µM (inactive), the GI50 [48] was > 100 µM (inactive) and the GI50 [49] was > 100 µM (inactive). For the same molecule, the GI50 [50] was > 100 µM (inactive), the GI50 [51] was > 100 µM (inactive) and the GI50 [52] was > 100 µM (inactive). The GI50 [53] was > 100 µM (inactive), the GI50 [54] was > 100 µM (inactive) and the GI50 [56] was > 100 µM (inactive). The GI50 [57] was > 100 µM (inactive).

— ChEMBL document CHEMBL1201862, “PubChem BioAssay data set” (2004)
